From ChEMBL document CHEMBL3804786, “Novel 1,3-thiazolidin-4-one derivatives as promising anti-Candida agents endowed with anti-oxidant and chelating properties” (Eur J Med Chem, 2016)
In brackets after ≈: the same amount, converted by molar mass.

Key:
Staphylococcus aureus = test: Antibacterial activity against Staphylococcus aureus clinical isolate after 18 to 22 hrs by broth microdilution method; type: functional
Staphylococcus warneri = test: Antibacterial activity against Staphylococcus warneri clinical isolate after 18 to 22 hrs by broth microdilution method; type: functional
Enterococcus faecalis = test: Antibacterial activity against Streptococcus faecalis clinical isolate after 18 to 22 hrs by broth microdilution method; type: functional
Escherichia coli = test: Antibacterial activity against Escherichia coli after clinical isolate 18 to 22 hrs by broth microdilution method; type: functional
Proteus mirabilis = test: Antibacterial activity against Proteus mirabilis clinical isolate after 18 to 22 hrs by broth microdilution method; type: functional
Enterobacter sp. = test: Antibacterial activity against Enterobacter spp. clinical isolate after 18 to 22 hrs by broth microdilution method; type: functional
Klebsiella oxytoca = test: Antibacterial activity against Klebsiella oxytoca clinical isolate after 18 to 22 hrs by broth microdilution method; type: functional
Candida albicans = test: Antifungal activity against Candida albicans clinical isolate after 24 hrs by broth microdilution method; type: functional
Nakaseomyces glabratus = test: Antifungal activity against Candida glabrata clinical isolate after 24 hrs by broth microdilution method; type: functional
Candida tropicalis = test: Antifungal activity against Candida tropicalis clinical isolate after 24 hrs by broth microdilution method; type: functional
Pichia kudriavzevii = test: Antifungal activity against Candida krusei clinical isolate after 24 hrs by broth microdilution method; type: functional
Candida parapsilosis = test: Antifungal activity against Candida parapsilosis clinical isolate after 24 hrs by broth microdilution method; type: functional; conditions: Lodderomyces parapsilosis
[Candida] sake = Antifungal activity against Candida sake clinical isolate after 24 hrs by broth microdilution method; type: functional; conditions: Fermentozyma sake
[1] = Cytotoxicity against human Hep2 cells assessed as cell survival at 0.05 ug/ml after 24 hrs by trypan blue exclusion assay; type: cell-based, HEp-2; conditions: read-out: Survival
[2] = Cytotoxicity against human Hep2 cells assessed as cell survival at 0.5 ug/ml after 24 hrs by trypan blue exclusion assay; type: cell-based, HEp-2; conditions: read-out: Survival
[3] = Cytotoxicity against human Hep2 cells assessed as cell survival at 5 ug/ml after 24 hrs by trypan blue exclusion assay; type: cell-based, HEp-2; conditions: read-out: Survival
[4] = Cytotoxicity against human Hep2 cells assessed as cell survival at 10 ug/ml after 24 hrs by trypan blue exclusion assay; type: cell-based, HEp-2; conditions: read-out: Survival
[5] = Cytotoxicity against human Hep2 cells assessed as cell survival at 50 ug/ml after 24 hrs by trypan blue exclusion assay; type: cell-based, HEp-2; conditions: read-out: Survival
[6] = Cytotoxicity against human Hep2 cells assessed as reduction in cell viability after 24 hrs by trypan blue exclusion assay; type: cell-based, HEp-2
[7] = Antioxidant activity of the compound after 90 mins by phosphomolybdenum assay; type: physicochemical
[8] = Antioxidant activity of the compound after 30 mins by FRAP assay; type: physicochemical
[9] = Antioxidant activity of the compound after 30 mins by CUPRAC method; type: physicochemical
[10] = Antioxidant activity assessed as DPPH radical scavenging activity after 30 mins under dark conditions; type: physicochemical
[11] = Antioxidant activity assessed as ABTS radical scavenging activity after 30 mins under dark conditions; type: physicochemical
[12] = Metal chelating activity of the compound assessed as ferrous ion complex formation after 10 mins; type: physicochemical
[13] = tested on: Streptococcus sp. (viridans group); test: Antibacterial activity against Streptococcus alpha-hemolyticus clinical isolate after 18 to 22 hrs by broth microdilution method

Structure (SMILES) | MIC (Staphylococcus aureus) | MIC (Staphylococcus warneri) | MIC (Enterococcus faecalis) | MIC (Escherichia coli) | MIC (Proteus mirabilis) | MIC (Enterobacter sp.) | MIC (Klebsiella oxytoca) | MIC (Candida albicans) | MIC (Nakaseomyces glabratus) | MIC (Candida tropicalis) | MIC (Pichia kudriavzevii) | MIC (Candida parapsilosis) | MIC ([Candida] sake) | viability at 24 h, 0.05 ug/ml [1] | viability at 24 h, 0.5 ug/ml [2] | viability at 24 h, 5 ug/ml [3] | viability at 24 h, 10 ug/ml [4] | viability at 24 h, 50 ug/ml [5] | CC50 at 24 h [6] | EC50 [7] | further results
O=C1CS/C(=N\N=C2CCCC2)N1Cc1ccccc1F | > 256 µg/mL | > 256 µg/mL | > 256 µg/mL | > 256 µg/mL | > 256 µg/mL | > 256 µg/mL | > 256 µg/mL | 2 µg/mL (≈ 6.55 µM) | 2 µg/mL (≈ 6.55 µM) | 2 µg/mL (≈ 6.55 µM) | 8 µg/mL (≈ 26.2 µM) | 2 µg/mL (≈ 6.55 µM) | 2 µg/mL (≈ 6.55 µM) | 82% | 69% | 52% | 37% | 0% | 11 µg/mL (≈ 36 µM) | 0.7 mM | EC50 [8]: 5.63 mM; EC50 [9]: 2.37 mM; IC50 [10]: > 5 mM; IC50 [11]: 12.4 mM; IC50 [12]: > 5 mM; MIC [13]: > 256 µg/mL
C/C(=N/N=C1\SCC(=O)N1Cc1ccccc1[N+](=O)[O-])c1cccs1 | > 256 µg/mL | > 256 µg/mL | > 256 µg/mL | > 256 µg/mL | > 256 µg/mL | > 256 µg/mL | > 256 µg/mL | 2 µg/mL (≈ 5.34 µM) | 2 µg/mL (≈ 5.34 µM) | 4 µg/mL (≈ 10.7 µM) | 2 µg/mL (≈ 5.34 µM) | 8 µg/mL (≈ 21.4 µM) | 2 µg/mL (≈ 5.34 µM) | 88% | 84% | 74% | 61% | 0% | 20 µg/mL (≈ 53.4 µM) | 1.12 mM | EC50 [8]: 2.4 mM; EC50 [9]: 2.25 mM; IC50 [10]: > 5 mM; IC50 [11]: 18.1 mM; IC50 [12]: > 5 mM; MIC [13]: > 256 µg/mL
CC(C)=N/N=C1\SCC(=O)N1Cc1cccc([N+](=O)[O-])c1 | > 256 µg/mL | > 256 µg/mL | > 256 µg/mL | > 256 µg/mL | > 256 µg/mL | > 256 µg/mL | > 256 µg/mL | 2 µg/mL (≈ 6.53 µM) | 2 µg/mL (≈ 6.53 µM) | 2 µg/mL (≈ 6.53 µM) | 2 µg/mL (≈ 6.53 µM) | 16 µg/mL (≈ 52.2 µM) | 2 µg/mL (≈ 6.53 µM) | 79% | 68% | 51% | 0% | 0% | 5 µg/mL (≈ 16.3 µM) | 1.24 mM | EC50 [8]: 5.29 mM; EC50 [9]: 2.35 mM; IC50 [10]: > 5 mM; IC50 [11]: 19.4 mM; IC50 [12]: > 5 mM; MIC [13]: > 256 µg/mL
C/C(=N\N=C1/SCC(=O)N1Cc1ccccc1F)c1cccs1 | > 256 µg/mL | > 256 µg/mL | > 256 µg/mL | > 256 µg/mL | > 256 µg/mL | > 256 µg/mL | > 256 µg/mL | 2 µg/mL (≈ 5.76 µM) | 4 µg/mL (≈ 11.5 µM) | 2 µg/mL (≈ 5.76 µM) | 4 µg/mL (≈ 11.5 µM) | 4 µg/mL (≈ 11.5 µM) | 2 µg/mL (≈ 5.76 µM) | 91% | 80% | 62% | 41% | 0% | 15 µg/mL (≈ 43.2 µM) | 1.26 mM | EC50 [8]: 2.13 mM; EC50 [9]: 2.4 mM; IC50 [10]: > 5 mM; IC50 [11]: 15.7 mM; IC50 [12]: 3.84 mM; MIC [13]: > 256 µg/mL
C/C(=N/N=C1\SCC(=O)N1Cc1ccc(F)cc1)c1cccs1 | > 256 µg/mL | > 256 µg/mL | > 256 µg/mL | > 256 µg/mL | > 256 µg/mL | > 256 µg/mL | > 256 µg/mL | 2 µg/mL (≈ 5.76 µM) | 2 µg/mL (≈ 5.76 µM) | 2 µg/mL (≈ 5.76 µM) | 2 µg/mL (≈ 5.76 µM) | 4 µg/mL (≈ 11.5 µM) | 8 µg/mL (≈ 23 µM) | 83% | 76% | 68% | 52% | 0% | 15 µg/mL (≈ 43.2 µM) | 1.37 mM | EC50 [8]: 2.02 mM; EC50 [9]: 1.85 mM; IC50 [10]: > 5 mM; IC50 [11]: 21.5 mM; IC50 [12]: 3.9 mM; MIC [13]: > 256 µg/mL
O=C1CS/C(=N\N=C2CCCC2)N1Cc1ccc(Cl)cc1 | > 256 µg/mL | > 256 µg/mL | > 256 µg/mL | > 256 µg/mL | > 256 µg/mL | > 256 µg/mL | > 256 µg/mL | 2 µg/mL (≈ 6.21 µM) | 2 µg/mL (≈ 6.21 µM) | 2 µg/mL (≈ 6.21 µM) | 8 µg/mL (≈ 24.9 µM) | 2 µg/mL (≈ 6.21 µM) | 4 µg/mL (≈ 12.4 µM) | 89% | 83% | 59% | 47% | 0% | 16 µg/mL (≈ 49.7 µM) | 0.56 mM | EC50 [8]: 4.8 mM; EC50 [9]: 2.1 mM; IC50 [10]: > 5 mM; IC50 [11]: 18.3 mM; IC50 [12]: > 5 mM; MIC [13]: > 256 µg/mL
C/C(=N\N=C1/SCC(=O)N1Cc1cccc(F)c1)c1cccs1 | > 256 µg/mL | > 256 µg/mL | > 256 µg/mL | > 256 µg/mL | > 256 µg/mL | > 256 µg/mL | > 256 µg/mL | 2 µg/mL (≈ 5.76 µM) | 8 µg/mL (≈ 23 µM) | 2 µg/mL (≈ 5.76 µM) | 2 µg/mL (≈ 5.76 µM) | 2 µg/mL (≈ 5.76 µM) | 2 µg/mL (≈ 5.76 µM) | 80% | 68% | 42% | 0% | 0% | 6 µg/mL (≈ 17.3 µM) | 1.36 mM | EC50 [8]: 2.62 mM; EC50 [9]: 2.55 mM; IC50 [10]: > 5 mM; IC50 [11]: 21.1 mM; IC50 [12]: 4.64 mM; MIC [13]: > 256 µg/mL
C/C(=N/N=C1\SCC(=O)N1Cc1ccc(F)cc1)c1ccccn1 | > 256 µg/mL | > 256 µg/mL | > 256 µg/mL | > 256 µg/mL | > 256 µg/mL | > 256 µg/mL | > 256 µg/mL | 2 µg/mL (≈ 5.84 µM) | 2 µg/mL (≈ 5.84 µM) | 2 µg/mL (≈ 5.84 µM) | 8 µg/mL (≈ 23.4 µM) | 4 µg/mL (≈ 11.7 µM) | 2 µg/mL (≈ 5.84 µM) | 91% | 83% | 70% | 42% | 0% | 16 µg/mL (≈ 46.7 µM) | 1.16 mM | EC50 [8]: 6.22 mM; EC50 [9]: 1.75 mM; IC50 [10]: > 5 mM; IC50 [11]: 16.1 mM; IC50 [12]: 3.67 mM; MIC [13]: > 256 µg/mL
